System: M. tuberculosis H37Ra in murine alveolar macrophage-like cell line MH-S
Experiment: microbe, parasite or virus in culture
Assay type: cell-based
Conditions: Mycobacterium tuberculosis, 24 h

C=C(NC(=O)C(=C)NC(=O)c1csc(C2=N[C@@H]3c4csc(n4)[C@H]4NC(=O)c5csc(n5)[C@H]([C@](C)(O)[C@@H](C)O)NC(=O)[C@H]5CSC(=N5)/C(=C/C)NC(=O)[C@H]([C@@H](C)O)NC(=O)c5csc(n5)[C@]3(CC2)NC(=O)[C@H](C)NC(=O)C(=C)NC(=O)[C@H](C)NC(=O)[C@H]([C@@H](C)CC)N[C@@H]2C=Cc3c([C@H](C)O)cc(nc3[C@H]2O)C(=O)O[C@@H]4C)n1)C(N)=O [thiostrepton, Thiostrepton] was tested, and the IC50 was 0.03 µM.
